Measurements published in publication PMC5746060, “General and Modular Strategy for Designing Potent, Selective, and Pharmacologically Compliant Inhibitors of Rhomboid Proteases” (Cell Chemical Biology, 2017).
Starred links: 1 amine or outer side, 2 acyl side, 3 side chain; linkers in the order of their positions; H or OH if unused. Non-standard residues stand in square brackets, D forms with d. Residues, ends and D or L forms follow the SMILES beside them. *: point of attachment. NH(4-phenylbutyl) = c1ccc(CCCCN*)cc1; X1 = C[C@H](N[*:1])C(=O)C(=O)[*:2]

Biological target: T1, endogenous YqgP (Bacillus subtilis, UniProt P54493)
T1 construct: cleaved to about 75% conversion by the endogenous YqgP; endogenous in cells; host or cells: Bacillus subtilis 168 ydcA::neo, xkdE::substrate (BS87)
T1 sequence (P54493 whole entry): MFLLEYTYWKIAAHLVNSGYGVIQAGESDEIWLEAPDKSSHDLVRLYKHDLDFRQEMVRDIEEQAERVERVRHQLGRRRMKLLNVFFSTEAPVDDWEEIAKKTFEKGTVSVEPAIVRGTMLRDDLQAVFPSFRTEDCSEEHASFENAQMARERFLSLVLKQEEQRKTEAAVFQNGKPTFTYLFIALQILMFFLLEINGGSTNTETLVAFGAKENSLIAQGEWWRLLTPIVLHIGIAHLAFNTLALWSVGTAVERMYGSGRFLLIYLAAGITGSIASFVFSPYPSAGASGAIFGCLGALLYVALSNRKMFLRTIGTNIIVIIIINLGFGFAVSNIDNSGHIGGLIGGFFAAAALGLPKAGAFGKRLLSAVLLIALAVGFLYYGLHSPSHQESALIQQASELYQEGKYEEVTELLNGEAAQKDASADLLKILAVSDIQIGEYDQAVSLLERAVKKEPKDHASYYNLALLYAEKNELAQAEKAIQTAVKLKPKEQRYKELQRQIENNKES
Assay: inhibition of endogenous YqgP in live B. subtilis (LacYTM2 substrate cleavage, western blot)
Assay type: cell-based, Bacillus subtilis 168
Conditions: for % substrate conversion: YqgP WT (BS87)
Protocol: The substrate MBP-FLAG-LacYTM2-Trx ([Strisovsky et al., 2009]) was expressed in wild-type E. coli NR698 with genetically permeabilized outer membrane ([Ruiz et al., 2005]) in the presence of increasing concentrations of inhibitors as described in STAR Methods. Substrate cleavage was measured in cell lysates by immunoblotting for FLAG and quantified using near-infrared fluorescence. The reported in vivo IC50 values are best-fit means with SD representative of 2–3 measurements. DMSO, dimethylsulfoxide vehicle control; KO, E. coli glpG::tet. […] The substrate AmyESP-MBP-FLAG-LacYTM2-Trx-HA was expressed in Bacillus subtilis 168 (ydcA::neo, xdkE::AmyESP-MBP-LacYTM2-Trx(erm, lin)) (BS87) in the presence of increasing concentrations of inhibitors as described in STAR Methods. Substrate cleavage was detected in cell lysates by immunoblotting for FLAG and detection by near-infrared fluorescence. […] This treatment was necessary because the specific cleavage product could not be resolved sufficiently well from the non-specific bands to be integrated separately. DMSO, dimethylsulfoxide vehicle control; YqgP KO, Bacillus subtilis 168 (ydcA::neo, yqgP::tet, xdkE::AmyESP-MBP-LacYTM2-Trx(erm, lin)) (BS88).
We then extended the range of organisms to Bacillus subtilis, a representative of Gram-positive bacteria, which have a thick cell wall and include major pathogens such as Staphylococcus, Listeria, Streptococcus, and others. Since the endogenous substrate of the B. subtilis rhomboid protease YqgP is unknown, and no robust and rescuable phenotypes have been reported for YqgP, we focused on inhibition of cleavage of a model substrate.
For measuring the inhibition of YqgP in vivo, the B. subtilis strains BS87 and its yqgP knock-out derivative BS88, generated in this work (see Constructs and Cloning section), were used as follows. The chimeric LacYTM2 substrate AmyEsp-MBP-FLAG-LacYTM2-Trx-HA (this work) was expressed under control of xylose promoter from the xdkE genomic locus. Fresh LB medium, supplemented with appropriate antibiotic, was inoculated with a few colonies of the B. subtilis strain grown overnight on selective LB agar plate and pre-culture was grown for 2 h at 37°C to OD600 = 1. Pre-culture was then diluted with fresh LB medium to the density of OD600 = 0.05. At this point, the expression of LacYTM2 was induced by adding 1% (w/v) D-(+)-xylose (Sigma), rhomboid inhibitors were added at a range of concentrations, and the cultures were further incubated for 2.5 h at 37°C (reaching OD600 ∼ 1). Steady-state conversion of the substrate was evaluated by western blotting with near-infrared fluorescence detection as described ([Ticha et al., 2017]), substracting the intensity of non-specific bands, closely co-migrating with the specific rhomboid-formed N-terminal cleavage product of the substrate.

Question: With `CC(=O)N[C@@H](CCCNC(=N)N)C(=O)N[C@H](C(=O)N[C@@H](CCCNC(=N)N)C(=O)N[C@@H](Cc1c[nH]cn1)C(=O)N[C@@H](C)C(=O)C(=O)NCCCCc1ccccc1)C(C)C` [compound 11, Ac-RVRHA-CONH-phenylbutyl] (Ac-RVRH[X1]-{NH(4-phenylbutyl)}) as the compound, how does the IC50 read?
Answer: 5 to 10 nM

Question: And the “% substrate conversion” value (0.6 nM compound 11)?
Answer: 73%

Question: What about the “% substrate conversion” value (1.2 nM compound 11) of the same compound?
Answer: 67%

Question: And the “% substrate conversion” value (2.5 nM compound 11)?
Answer: 54%

Question: And the “% substrate conversion” value (5 nM compound 11)?
Answer: 52%

Question: What about the “% substrate conversion” value (10 nM compound 11) of the same compound?
Answer: 7%

Question: And the “% substrate conversion” value (20 nM compound 11)?
Answer: 4%

Question: What about the “% substrate conversion” value (50 nM compound 11) of the same compound?
Answer: 0%

Question: What about the “inhibition of substrate cleavage” value (50 nM in growth media) of the same compound?
Answer: completely inhibited
